Earlier results, collected in patent US9913492B1, “Yolatile liquid inhaler and method of manufacture” (priority 2010, dated 2018).

Key:
[1] = at 25 degrees C.

Row | Compound | lethal dose (adult human beings; comparison with nicotine) [mg] | LD50 (mice) [mg/kg] | vapor pressure [1] [MBR] | LD50 (rats) [mg/kg] | lethal dosage (adult human beings; adult human beings) [mg]
1 | COC(=O)[C@H]1[C@@H](OC(=O)c2ccccc2)C[C@@H]2CC[C@H]1N2C [cocaine] | 1000 |  |  |  | 
2 | CN1CCCC1c1cccnc1 (centres unmarked) [nicotine] |  | 3 | 0.53 | 50 | 40 to 60
